System: MV-4-11 cells
Experiment: Gene expression microarray analysis (Affymetrix PrimeView) and GSEA
Assay type: cell-based, human
Set-up: RFU PODN (11730768_x_at) / Fold change /veh PODN (11730768_x_at) / RFU LINC00158 (11744669_a_at) / Fold change /veh LINC00158 (11744669_a_at) / RFU DUSP10 (11751237_a_at) / Fold change /veh DUSP10 (11751237_a_at) / RFU ID3 (11757404_x_at) / Fold change /veh ID3 (11757404_x_at) / RFU PLEKHG5 (11737974_s_at) / Fold change /veh PLEKHG5 (11737974_s_at) / RFU LRRC4B (11730491_at) / Fold change /veh LRRC4B (11730491_at) / RFU GIMAP4 (11747438_a_at) / Fold change /veh GIMAP4 (11747438_a_at) / RFU KRT8 (11758183_x_at) / Fold change /veh KRT8 (11758183_x_at) / RFU CNN1 (11734310_a_at) / Fold change /veh CNN1 (11734310_a_at) / RFU VPS37D (11726825_at) / Fold change /veh VPS37D (11726825_at) / RFU C10orf10 (11716522_x_at) / Fold change /veh C10orf10 (11716522_x_at) / RFU KIR2DL2 /// KIR2DL4 /// KIR2DL5A /// KIR2DL5B /// KIR2DS1 /// KIR2DS2 /// KIR2DS3 /// KIR2DS4 /// KIR3DL3 /// KIR3DL3 /// KIR3DS1 (11738374_at) / Fold change /veh KIR2DL2 /// KIR2DL4 /// KIR2DL5A /// KIR2DL5B /// KIR2DS1 /// KIR2DS2 /// KIR2DS3 /// KIR2DS4 /// KIR3DL3 /// KIR3DL3 /// KIR3DS1 (11738374_at) / RFU C1QL1 (11718748_at) / Fold change /veh C1QL1 (11718748_at) / RFU TMPRSS4 (11747572_a_at) / Fold change /veh TMPRSS4 (11747572_a_at) / RFU HAMP (11756126_x_at) / Fold change /veh HAMP (11756126_x_at) / RFU RNFT2 (11725882_a_at) / Fold change /veh RNFT2 (11725882_a_at) / RFU NR4A2 (11747474_a_at) / Fold change /veh NR4A2 (11747474_a_at) / RFU ABCC12 (11746883_a_at) / Fold change /veh ABCC12 (11746883_a_at) / RFU TMEM136 (11760407_x_at) / Fold change /veh TMEM136 (11760407_x_at) / RFU CLDN22 /// WWC2 (11732394_at) / Fold change /veh CLDN22 /// WWC2 (11732394_at) / RFU HLA-DPB1 (11760878_x_at) / Fold change /veh HLA-DPB1 (11760878_x_at) / RFU SPINT1 (11716480_a_at) / Fold change /veh SPINT1 (11716480_a_at) / RFU GAP43 (11754022_s_at) / Fold change /veh GAP43 (11754022_s_at) / RFU A4GNT (11735810_at) / Fold change /veh A4GNT (11735810_at) / RFU PRB3 (11715151_x_at) / Fold change /veh PRB3 (11715151_x_at) / RFU TUBB4B (11761932_at) / Fold change /veh TUBB4B (11761932_at) / RFU CAPN14 (11732068_a_at) / Fold change /veh CAPN14 (11732068_a_at) / RFU TMCC2 (11721928_a_at) / Fold change /veh TMCC2 (11721928_a_at) / RFU IRGQ (11745062_a_at) / Fold change /veh IRGQ (11745062_a_at) / RFU FAM174B (11720279_a_at) / Fold change /veh FAM174B (11720279_a_at) / RFU TMPRSS4 (11748680_a_at) / Fold change /veh TMPRSS4 (11748680_a_at) / RFU FAM212B (11763350_a_at) / Fold change /veh FAM212B (11763350_a_at) / RFU PLEKHG5 (11743358_a_at) / Fold change /veh PLEKHG5 (11743358_a_at) / RFU ZSCAN30 (11745921_a_at) / Fold change /veh ZSCAN30 (11745921_a_at) / RFU CMKLR1 (11741424_a_at) / Fold change /veh CMKLR1 (11741424_a_at) / RFU LOC101060620 /// MAPK8IP1 (11723275_at) / Fold change /veh LOC101060620 /// MAPK8IP1 (11723275_at) / RFU SPTSSB (11747773_x_at) / Fold change /veh SPTSSB (11747773_x_at) / RFU PRSS12 (11739890_at) / Fold change /veh PRSS12 (11739890_at) / RFU BIN1 (11741810_x_at) / Fold change /veh BIN1 (11741810_x_at) / RFU WNT11 (11732464_a_at) / Fold change /veh WNT11 (11732464_a_at) / RFU C10orf10 (11716521_a_at) / Fold change /veh C10orf10 (11716521_a_at) / RFU C5orf56 (11738089_at) / Fold change /veh C5orf56 (11738089_at) / RFU CYB561 (11721691_x_at) / Fold change /veh CYB561 (11721691_x_at) / RFU ANKRD19P (11752326_a_at) / Fold change /veh ANKRD19P (11752326_a_at) / RFU OR2T12 /// OR2T33 /// OR2T8 (11738714_s_at) / Fold change /veh OR2T12 /// OR2T33 /// OR2T8 (11738714_s_at) / RFU VCAN (11748164_a_at) / Fold change /veh VCAN (11748164_a_at) / RFU JSRP1 (11732532_at) / Fold change /veh JSRP1 (11732532_at) / RFU KRTAP10-11 (11738290_x_at) / Fold change /veh KRTAP10-11 (11738290_x_at) / RFU MYO3A (11730013_a_at) / Fold change /veh MYO3A (11730013_a_at) / RFU EBF3 (11725865_a_at) / Fold change /veh EBF3 (11725865_a_at) / RFU CAMK2N1 (11719241_x_at) / Fold change /veh CAMK2N1 (11719241_x_at) / RFU C5orf56 (11738088_a_at) / Fold change /veh C5orf56 (11738088_a_at) / RFU OLFML3 (11715873_a_at) / Fold change /veh OLFML3 (11715873_a_at) / RFU LOC100653217 /// NTM (11731650_a_at) / Fold change /veh LOC100653217 /// NTM (11731650_a_at) / RFU MAPK11 (11762145_a_at) / Fold change /veh MAPK11 (11762145_a_at) / RFU FIZ1 (11724087_x_at) / Fold change /veh FIZ1 (11724087_x_at) / RFU OASL (11726364_x_at) / Fold change /veh OASL (11726364_x_at) / RFU SOX15 (11748057_x_at) / Fold change /veh SOX15 (11748057_x_at) / RFU CD79A (11719716_a_at) / Fold change /veh CD79A (11719716_a_at) / RFU HIST1H1D (11736915_at) / Fold change /veh HIST1H1D (11736915_at) / RFU CASKIN2 (11723855_a_at) / Fold change /veh CASKIN2 (11723855_a_at) / RFU LOC730098 (11760151_x_at) / Fold change /veh LOC730098 (11760151_x_at) / RFU OR4N2 (11742367_at) / Fold change /veh OR4N2 (11742367_at) / RFU PRRT2 (11749266_a_at) / Fold change /veh PRRT2 (11749266_a_at) / RFU SNX32 (11753110_a_at) / Fold change /veh SNX32 (11753110_a_at) / RFU CDHR5 (11726645_a_at) / Fold change /veh CDHR5 (11726645_a_at) / RFU RCAN1 (11760418_a_at) / Fold change /veh RCAN1 (11760418_a_at) / RFU FAM167A (11723789_a_at) / Fold change /veh FAM167A (11723789_a_at) / RFU FAM26E (11764081_at) / Fold change /veh FAM26E (11764081_at) / RFU ISYNA1 (11749810_s_at) / Fold change /veh ISYNA1 (11749810_s_at) / RFU ACY1 (11761880_at) / Fold change /veh ACY1 (11761880_at) / RFU 11764098_at / Fold change /veh 11764098_at / RFU SAMD14 (11745864_x_at) / Fold change /veh SAMD14 (11745864_x_at) / RFU NPB (11741838_a_at) / Fold change /veh NPB (11741838_a_at) / RFU TMPRSS6 (11731388_a_at) / Fold change /veh TMPRSS6 (11731388_a_at) / RFU KRTAP10-2 (11738614_at) / Fold change /veh KRTAP10-2 (11738614_at) / RFU ARHGAP8 /// PRR5-ARHGAP8 (11727945_x_at) / Fold change /veh ARHGAP8 /// PRR5-ARHGAP8 (11727945_x_at) / RFU KRTAP5-7 /// NADSYN1 (11734609_at) / Fold change /veh KRTAP5-7 /// NADSYN1 (11734609_at) / RFU RASL12 (11751679_a_at) / Fold change /veh RASL12 (11751679_a_at) / RFU CDKN2B (11736163_a_at) / Fold change /veh CDKN2B (11736163_a_at) / RFU PRF1 (11729649_at) / Fold change /veh PRF1 (11729649_at) / RFU, ZNF638 /// ZNF638-IT1 / Fold change vs veh, ZNF638 /// ZNF638-IT1 / RFU, PANK3 / Fold change vs veh, PANK3 / RFU, SH3YL1 / Fold change vs veh, SH3YL1 / RFU, ZEB2 / Fold change vs veh, ZEB2 / RFU, NRIP1 / Fold change vs veh, NRIP1 / RFU, PTTG1IP / Fold change vs veh, PTTG1IP / RFU, CAPN2 / Fold change vs veh, CAPN2 / RFU, MED14 / Fold change vs veh, MED14 / RFU, SNORA58 / Fold change vs veh, SNORA58 / RFU, C1orf63 / Fold change vs veh, C1orf63 / RFU, LRRFIP1 / Fold change vs veh, LRRFIP1 / RFU, NDUFAF7 / Fold change vs veh, NDUFAF7 / RFU, SLC12A2 / Fold change vs veh, SLC12A2 / RFU, IBTK / Fold change vs veh, IBTK / RFU, ESF1 / Fold change vs veh, ESF1 / Fold change vs veh, TMEM50B / RFU, TAOK1 / Fold change vs veh, TAOK1 / RFU, ACBD3 / Fold change vs veh, ACBD3 / RFU, TMA16 / Fold change vs veh, TMA16 / RFU, RWDD3 / Fold change vs veh, RWDD3 / RFU, BCAT1 / Fold change vs veh, BCAT1 / RFU, EDEM3 / Fold change vs veh, EDEM3 / RFU, TMEM33 / Fold change vs veh, TMEM33 / RFU, WDR75 / Fold change vs veh, WDR75 / RFU, AHCTF1 / Fold change vs veh, AHCTF1 / RFU, TFRC / Fold change vs veh, TFRC / RFU, ZDHHC17 / Fold change vs veh, ZDHHC17 / RFU, NOM1 / Fold change vs veh, NOM1 / RFU, ARL8B / Fold change vs veh, ARL8B / RFU, ZBTB11 / Fold change vs veh, ZBTB11 / RFU, TAMM41 / Fold change vs veh, TAMM41 / RFU, KIAA1704 /// LOC100996395 / Fold change vs veh, KIAA1704 /// LOC100996395 / RFU, ING1 / Fold change vs veh, ING1 / RFU, TRMT61B / Fold change vs veh, TRMT61B / RFU, FUBP3 / Fold change vs veh, FUBP3 / RFU, TP53 / Fold change vs veh, TP53 / RFU, TNKS2 / Fold change vs veh, TNKS2 / RFU, ZFP14 / Fold change vs veh, ZFP14 / RFU, ACTR2 / Fold change vs veh, ACTR2 / RFU, PPP3R1 / Fold change vs veh, PPP3R1 / RFU, PIK3R1 / Fold change vs veh, PIK3R1 / RFU, HNRNPA1 / Fold change vs veh, HNRNPA1 / RFU, RNF170 / Fold change vs veh, RNF170 / RFU, ZNF28 / Fold change vs veh, ZNF28 / RFU, RNGTT / Fold change vs veh, RNGTT / RFU, OGT / Fold change vs veh, OGT / RFU, BRD1 / Fold change vs veh, BRD1 / RFU, MARS / Fold change vs veh, MARS / RFU, ZNF655 / Fold change vs veh, ZNF655 / RFU, FAHD1 / Fold change vs veh, FAHD1 / RFU, BDP1 / Fold change vs veh, BDP1 / RFU, LRRCC1 / Fold change vs veh, LRRCC1 / RFU, ARID1A / Fold change vs veh, ARID1A / RFU, ZNF146 / Fold change vs veh, ZNF146 / RFU, ZNF330 / Fold change vs veh, ZNF330 / RFU, GPN3 / Fold change vs veh, GPN3 / RFU, C9orf123 / Fold change vs veh, C9orf123 / RFU, N4BP2L2 / Fold change vs veh, N4BP2L2 / RFU, ARFIP1 / Fold change vs veh, ARFIP1 / RFU, FAM179B / Fold change vs veh, FAM179B / RFU, BCL10 / Fold change vs veh, BCL10 / RFU, UHRF1BP1L / Fold change vs veh, UHRF1BP1L / RFU, BET1 / Fold change vs veh, BET1 / RFU, CNOT2 / Fold change vs veh, CNOT2 / RFU, ZNF268 / Fold change vs veh, ZNF268 / Fold change vs veh, ZNF507 / RFU, DGCR2 / Fold change vs veh, DGCR2 / RFU, WDSUB1 / Fold change vs veh, WDSUB1 / Fold change vs veh, HSP90B1 /// MIR3652 / RFU, ADSS / Fold change vs veh, ADSS / RFU, GK / Fold change vs veh, GK / RFU, ZNF148 / Fold change vs veh, ZNF148 / RFU, TAF9 / Fold change vs veh, TAF9 / RFU, SLC1A5 / Fold change vs veh, SLC1A5 / RFU, SLMO2 / Fold change vs veh, SLMO2 / RFU, ABCC4 / Fold change vs veh, ABCC4 / RFU, LOC101060439 /// RAP1B / Fold change vs veh, LOC101060439 /// RAP1B / RFU, RFX7 / Fold change vs veh, RFX7 / RFU, GTPBP10 / Fold change vs veh, GTPBP10 / RFU, CNEP1R1 / Fold change vs veh, CNEP1R1 / RFU, BIVM-ERCC5 /// ERCC5 / Fold change vs veh, BIVM-ERCC5 /// ERCC5 / RFU, ILF3 / Fold change vs veh, ILF3 / RFU 11762660_at / Fold change /veh 11762660_at / RFU VCAN (11757783_s_at) / Fold change /veh VCAN (11757783_s_at) / RFU DDX43 (11728927_at) / Fold change /veh DDX43 (11728927_at) / RFU KRT8 (11758188_x_at) / Fold change /veh KRT8 (11758188_x_at) / RFU NKD1 (11759106_at) / Fold change /veh NKD1 (11759106_at) / RFU SRD5A1 (11742802_a_at) / Fold change /veh SRD5A1 (11742802_a_at) / RFU TPSAB1 /// TPSB2 (11721975_s_at) / Fold change /veh TPSAB1 /// TPSB2 (11721975_s_at) / RFU GSTM3 (11746129_a_at) / Fold change /veh GSTM3 (11746129_a_at) / RFU IL23R (11737362_x_at) / Fold change /veh IL23R (11737362_x_at) / RFU TMEM51 (11727254_a_at) / Fold change /veh TMEM51 (11727254_a_at) / RFU PIWIL2 (11732686_x_at) / Fold change /veh PIWIL2 (11732686_x_at) / RFU ORM1 (11744905_x_at) / Fold change /veh ORM1 (11744905_x_at) / RFU CCDC152 (11743942_at) / Fold change /veh CCDC152 (11743942_at) / RFU ECM1 (11717891_a_at) / Fold change /veh ECM1 (11717891_a_at) / RFU IL23R (11748794_a_at) / Fold change /veh IL23R (11748794_a_at) / RFU TNFAIP8L3 (11732012_x_at) / Fold change /veh TNFAIP8L3 (11732012_x_at) / RFU MBOAT4 (11741988_at) / Fold change /veh MBOAT4 (11741988_at) / RFU 11764193_at / Fold change /veh 11764193_at / RFU TMEM53 (11763286_at) / Fold change /veh TMEM53 (11763286_at) / RFU MAGEB2 (11727129_at) / Fold change /veh MAGEB2 (11727129_at) / RFU TMEM200A (11744735_a_at) / Fold change /veh TMEM200A (11744735_a_at) / RFU CCDC152 (11751479_a_at) / Fold change /veh CCDC152 (11751479_a_at) / RFU FAM211A (11726209_a_at) / Fold change /veh FAM211A (11726209_a_at) / RFU RGS16 (11746705_a_at) / Fold change /veh RGS16 (11746705_a_at) / RFU VCAN (11755009_s_at) / Fold change /veh VCAN (11755009_s_at) / RFU RHOB (11743442_s_at) / Fold change /veh RHOB (11743442_s_at) / RFU RGS16 (11720943_a_at) / Fold change /veh RGS16 (11720943_a_at) / RFU RGS16 (11720944_at) / Fold change /veh RGS16 (11720944_at) / RFU, VPS4B / Fold change vs veh, VPS4B / RFU, CREB1 / Fold change vs veh, CREB1 / RFU, DNAJC13 / Fold change vs veh, DNAJC13 / RFU, GNAQ / Fold change vs veh, GNAQ / RFU, CDK5R1 / Fold change vs veh, CDK5R1 / RFU, ZRANB3 / Fold change vs veh, ZRANB3 / RFU, CUL4A / Fold change vs veh, CUL4A / RFU, CCNY / Fold change vs veh, CCNY / RFU, UFL1 / Fold change vs veh, UFL1 / RFU, COG3 / Fold change vs veh, COG3 / RFU, DIAPH2 / Fold change vs veh, DIAPH2 / RFU, SKA2 / Fold change vs veh, SKA2 / RFU, AFF3 / Fold change vs veh, AFF3 / RFU, LMF1 / Fold change vs veh, LMF1 / RFU, IPO11 / Fold change vs veh, IPO11 / RFU, DFFB / Fold change vs veh, DFFB / RFU, FOXP1 / Fold change vs veh, FOXP1 / RFU, CARD8 / Fold change vs veh, CARD8 / RFU, STRN3 / Fold change vs veh, STRN3 / RFU, ADK / Fold change vs veh, ADK / RFU, RASSF2 / Fold change vs veh, RASSF2 / RFU, WIPF1 / Fold change vs veh, WIPF1 / RFU, LARP1B / Fold change vs veh, LARP1B / RFU, RASA1 / Fold change vs veh, RASA1 / RFU, RB1 / Fold change vs veh, RB1 / RFU, PPFIA1 / Fold change vs veh, PPFIA1 / RFU, MAT2A / Fold change vs veh, MAT2A / RFU, CCT5 / Fold change vs veh, CCT5 / RFU, WDR92 / Fold change vs veh, WDR92 / RFU, CUX1 / Fold change vs veh, CUX1 / RFU, TTC7A / Fold change vs veh, TTC7A / RFU, TMEM135 / Fold change vs veh, TMEM135 / RFU, DEPTOR / Fold change vs veh, DEPTOR / RFU, CPM / Fold change vs veh, CPM / RFU, DNAJB6 / Fold change vs veh, DNAJB6 / RFU, CACNA2D3 / Fold change vs veh, CACNA2D3 / RFU, DTX4 / Fold change vs veh, DTX4 / RFU, TFCP2 / Fold change vs veh, TFCP2 / RFU, GMCL1 /// GMCL1P1 / Fold change vs veh, GMCL1 /// GMCL1P1 / RFU, AEBP2 / Fold change vs veh, AEBP2 / RFU, SNHG1 /// SNORD22 /// SNORD25 /// SNORD26 /// SNORD27 /// SNORD28 /// SNORD29 /// SNORD31 / Fold change vs veh, SNHG1 /// SNORD22 /// SNORD25 /// SNORD26 /// SNORD27 /// SNORD28 /// SNORD29 /// SNORD31 / Fold change (Aza/veh), C12orf56 (ProbeSet 11735607_a_at) / Fold change (ACY-1035/veh), C12orf56 (ProbeSet 11735607_a_at) / Fold change (Aza/veh), FGFR1OP (ProbeSet 11751329_s_at) / Fold change (ACY-1035/veh), FGFR1OP (ProbeSet 11751329_s_at) / Fold change (Aza/veh), VPS36 (ProbeSet 11739960_a_at) / Fold change (ACY-1035/veh), VPS36 (ProbeSet 11739960_a_at) / RFU SYPL1 (11715823_x_at) / Fold change /veh SYPL1 (11715823_x_at) / RFU IGFBP7 (11715501_s_at) / Fold change /veh IGFBP7 (11715501_s_at) / RFU REEP3 (11722064_at) / Fold change /veh REEP3 (11722064_at) / RFU IGLL1 (11728026_x_at) / Fold change /veh IGLL1 (11728026_x_at): dose or concentration left out as unconfirmed
Details: ProbeSet 11744854_x_at; LIST B

## Nc1ncn([C@@H]2O[C@H](CO)[C@@H](O)[C@H]2O)c(=O)n1 [azacitidine]
  Fold change vs veh, ZNF28: 0.91

Reference: PMC5218480 (PLoS ONE, 2017)
